The subject of series [1] is HEL 92.1.7 cells (erythroleukemia). Briefly: Chemosensitivity assay (MTT-assay), HEL 92.1.7. Type of series: cell-based, human. The note with it: 96 hours of incubation, mean ± SEM. On the procedure: Depending on the characteristics of the cells, two different assays were performed. For adherently growing cells (HaCaT, HT-29, NCI-H460, SK-MEL-3, MG-63, Capan-1), cytotoxic and cytocidal effects were determined in the crystal violet assay, whereas for loosely adherent cells (LNCaP, SK-ES-1) and cells growing in suspension (HEL 92.1.7, Jurkat, U-937) the MTT-assay was used with minor modifications. In brief, 1.5 · 10^3 (HaCaT, HT-29, NCI-H460, SK-MEL-3, MG-63, Capan-1) or 5 · 10^3 (Jurkat, U-937, HEL92.1.7, LNCaP, SK-ES-1) cells per well were seeded into flat-bottom 96-well plates (Sarstedt, Nümbrecht, Germany). All compounds were used as solutions prepared in DMSO and tested at final concentrations (8 replicates per concentration) of 1, 3, 10, 30 and 50 μM. In case of the vehicle control and test compounds, the final DMSO concentration amounted to 0.1%. Absorbance was measured at 580 nm in a 96-well plate reader (GENios pro microplate reader, Tecan, Salzburg, Austria). Effects were quantified as previously described for both assays.

The test system of a further series is p53 in HT-29 cells. Briefly: p53 expression by immunoblotting, HT-29. Format: cell-based, human. The note with it: HT-29 nuclear extracts; 10 μM; 24 hours. The protocol:
The expression of the tumor suppressor p53 by NCI-H460 and HT-29 cells was determined after incubating the cells with compounds 1, 2, 4 and 5 at different concentrations for 24 hours. The cells (from a 10-cm culture dish, 70% confluency) were washed twice with PBS and harvested by scraping after addition of ice-cold buffer A (10 mM HEPES pH = 7.9, 10 mM KCl, 0.1 mM EDTA, 0.1 mM EGTA, protease inhibitor mix (Sigma-Aldrich)). After adding Nonidet P-40 (NP-40) (Sigma, Taufkirchen, Germany) to a final concentration of 1%, the cell suspensions were vortexed and subsequently centrifuged at 13000 g and 4°C for 30 seconds. The pellets were re-suspended in buffer B (buffer A + 400 mM NaCl, 1% NP-40) and gently agitated using a Sarmix M2000 (Sarstedt, Nümbrecht, Germany) at 4°C for 15 min, followed by centrifugation (13000 g, 4°C, 5 min; Microfuge; Eppendorf, Hamburg, Germany). The concentration of soluble protein was determined according to Bradford using the Bio-Rad Protein Assay (Bio-Rad Laboratories, Munich, Germany).
An amount of 30 μg total protein of each sample and 8 μL of a biotinylated molecular weight standard (1:6 dilution) (Cell Signaling, Danvers, MA, USA) was separated by SDS-PAGE (12% gel) and afterwards electroblotted (150 V, 30 min) to nitrocellulose membrane (Peqlab, Erlangen, Germany). To prevent unspecific binding, the membranes were treated with milk powder (5% (m/v) in buffer (150 mM NaCl, 20 mM Tris, 0.1% Tween 20, pH = 7.6)) before incubation with anti-p53 rabbit mAb (dilution 1:1000) (Cell Signaling) and anti-histone H2B Ab (dilution 1:1000) (Cell Signaling) as loading control at 4°C for 14 hours. The primary antibodies and the “protein ladder” were simultaneously detected with a horseradish peroxidase (HRP)-coupled donkey anti rabbit mAb (dilution 1:1000) (Santa Cruz biotechnology, Heidelberg, Germany) or the anti-biotin HRP-coupled antibody (dilution 1:5000) (Cell Signaling), respectively. The incubation with the secondary antibody was performed at room temperature for 1 hour. The bands were detected by […] using the Pierce ECL Western Blotting Substrate (Thermo Scientific, Dreieich, Germany). After exposure, the x-ray film (Amersham Hyperfilm ECL, GE Healthcare, München, Germany) was developed (CAWOMAT 2000 IR, CAWO, Schrobenhausen, Germany) and analyzed using a GS-710 imaging densitometer and Quantity One V. 4 software (Bio-Rad Laboratories, Munich, Germany).

The next series concerns the target T1, OCT1 (Homo sapiens, UniProt O15245).
T1 construct: containing the full length SLC22A1 cDNA (NM_003057) encoding the human OCT1 protein; expressed in transfected cells
T1 sequence (O15245 1-554): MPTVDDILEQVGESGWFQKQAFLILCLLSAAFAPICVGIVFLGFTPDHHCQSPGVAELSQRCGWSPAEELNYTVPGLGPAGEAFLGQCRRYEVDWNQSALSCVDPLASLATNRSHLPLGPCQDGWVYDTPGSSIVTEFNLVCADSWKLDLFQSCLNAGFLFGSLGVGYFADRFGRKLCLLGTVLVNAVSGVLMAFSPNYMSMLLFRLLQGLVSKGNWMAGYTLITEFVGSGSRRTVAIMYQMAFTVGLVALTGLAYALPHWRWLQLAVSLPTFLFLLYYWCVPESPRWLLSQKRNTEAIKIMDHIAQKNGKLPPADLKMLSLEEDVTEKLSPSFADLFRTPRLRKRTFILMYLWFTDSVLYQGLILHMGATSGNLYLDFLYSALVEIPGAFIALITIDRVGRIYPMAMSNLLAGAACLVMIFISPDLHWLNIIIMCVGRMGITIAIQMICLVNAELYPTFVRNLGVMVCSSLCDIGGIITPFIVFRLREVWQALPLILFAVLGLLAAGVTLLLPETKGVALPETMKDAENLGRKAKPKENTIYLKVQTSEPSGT
Briefly: Flow cytometric ASP+-uptake inhibition, HEK-OCT1. Type of series: cell-based. Conditions: for IC50: IC50, inhibition of ASP+-uptake, HEK-OCT1, 1 μM ASP+, ± SEM (N = 3). The protocol: The previously described fluorescent substrate of organic cation transporters, 4-(4-dimethylaminostyryl)-N-methylpyridinium (ASP^+), was used to determine the function of OCT1 and OCT3 by flow cytometry in the absence and the presence of bendamustine and selected bendamustine esters. HEK293 cells expressing the transporter of interest were trypsinized and washed twice with PBS, prior to re-suspension of 0.5 · 10^6 cells in 500 μL of PBS containing 2% (v/v) FCS. The cells were incubated with ASP^+ (100 μM stock solution in PBS containing 10% DMSO) for 5 minutes, allowing for cellular accumulation, and subsequently analyzed with a FACSCalibur flow cytometer. ASP^+ was excited at 488 nm and the fluorescence was measured using a 530/30 nm and a 585/42 band-pass filter. At least 1 · 10^4 single cells were analyzed by appropriate FSC/SSC gating.
The cells were pre-incubated with the respective test compound at different concentrations at room temperature for 10 minutes. Afterwards, ASP^+ was added to a final concentration of 1 μM, and the samples were incubated at 37°C in the dark for 5 minutes. Subsequently, the cells were washed, re-suspended in ice-cold PBS/FCS and stored on ice in the dark until measurement.
The normalized mean fluorescence intensities of the OCT expressing cells, set to 100% in the absence of an inhibitor, were calculated by subtracting the mean fluorescence intensity of unspecific ASP^+ uptake into HEK-Co control cells. The normalized fluorescence intensities in the presence of an inhibitor were plotted against the logarithm of the concentrations of the test compounds to calculate IC50 values. The “log (inhibitor) vs. normalized response-variable slope” equation of GraphPad Prism 5.01 was used for this purpose.

A word on the IC50: it is the midpoint of a concentration-inhibition curve. Low values mean higher potency, high ones lower potency. As a reminder, the inhibition is the drop in the measured response relative to a control, in per cent. Low readings indicate little suppression, high ones strong suppression. Turning to `Cn1c(CCCC(=O)O)nc2cc(N(CCCl)CCCl)ccc21` [Compound 1, bendamustine, reference compound], the IC50 in series [1] is 86.2 ± 2.6 µM; in series [1] (Homo sapiens, HEL 92.1.7, 96 h), more than 80 µM; at OCT1, more than 200 µM. The p53 expression entry in the series with p53 in HT-29 cells is on record as “slight induction”. At OCT1 (human, 200 μM (highest examined concentration)), this compound came in with an inhibition at 5 min, 200 µM of 35%.

Consider `COC(=O)CCCc1nc2cc(N(CCCl)CCCl)ccc2n1C` [Compound 2], for which the IC50 in series [1] (Homo sapiens, HEL 92.1.7, 96 h) is 2.5 ± 0.1 µM; at OCT1, 11.3 ± 1.9 µM. In addition, in the series on p53 in HT-29 cells, the p53 expression entry is reported as “increased the expression of p53”.

Regarding `Cn1c(CCCC(=O)OCCN2CCOCC2)nc2cc(N(CCCl)CCCl)ccc21` [Compound 4], the IC50 was determined as 2.4 ± 1 µM in series [1] (Homo sapiens, HEL 92.1.7, 96 h) and 10.1 ± 2.5 µM on OCT1. Moreover, the p53 expression entry with p53 in HT-29 cells is reported as “increased the expression of p53”.

As for `Cn1c(CCCC(=O)OCCN2CCCC2)nc2cc(N(CCCl)CCCl)ccc21` [Compound 5], the IC50 was 1 ± 0.01 µM in series [1] (Homo sapiens, HEL 92.1.7, 96 h) and 0.35 ± 0.03 µM on OCT1. For the same compound, in the series with p53 in HT-29 cells, the p53 expression result is “increased the expression of p53”. Also, the “potency factor relative to TPA at OCT1” value at OCT1 (from IC50 values) is “approximately 20”.
